Experimental data as given in ChEMBL document CHEMBL4699652, “Proline Hinged Amphipathic α-Helical Peptide Sensitizes Gram-Negative Bacteria to Various Gram-Positive Antibiotics” (J Med Chem, 2020).
Calls of active or inactive are those of the source. No cut-off for these calls is given here.

How the values were obtained:
Cell membrane [1] = test: Induction of outer membrane re-arragenemnts in Escherichia coli D21f2 incubated for 4 mins by NPN uptake assay; type: subcellular
Cell membrane [2] = test: Induction of outer membrane permeability in Escherichia coli assessed as periplasmic-beta-lactamase release at 5 uM using CENTA; type: subcellular
Escherichia coli [3] = test: Induction of cell killing in Escherichia coli assessed as time needed for bacterial destruction at 128 ug/ml; type: functional; conditions: dose 128 µg/ml
Cell membrane [4] = test: Induction of inner membrane permeability in Escherichia coli assessed as cytoplasmic beta-galactosidase release at 5 uM using ONPG
Cell membrane [5] = test: Induction of outer membrane re-arragenemnts in Escherichia coli ATCC 25922 incubated for 4 mins by NPN uptake assay; type: subcellular
Cell membrane [6] = test: Induction of inner membrane permeability in Escherichia coli at 5 uM incubated for 1 hr by SYTOX Green-staining based flow cytometry analysis; type: subcellular
Staphylococcus aureus = test: Antimicrobial activity against Staphylococcus aureus ATCC 29213 assessed as inhibition of bacterial growth incubated for 18 hrs by CLSI based method; type: functional
Erythrocyte = test: Hemolytic activity in human red blood cells assessed as induction of hemoglobin release incubated for 4 hrs by microplate reader based assay; type: cell-based
Escherichia coli [7] = test: Antimicrobial activity against Escherichia coli ATCC 25922 assessed as inhibition of bacterial growth incubated for 18 hrs by CLSI based method; type: functional
Escherichia coli [8] = test: Binding affinity to outer membrane in POPE/POPG lipid layers containing LPS by SPR assay
Escherichia coli [9] = test: Induction of cell lysis in Escherichia coli at 5 uM by transmission electron microscopy; type: functional, organism-based
Escherichia coli [10] = test: Binding affinity to cell membrane using POPC/cholesterol (8/2) by SPR assay
[11] = Induction of cell membrane permeability in POPE/POPG assessed as calcein leakage at 2 to 8 uM; conditions: dose microM 2-8
Escherichia coli [12] = test: Binding affinity to inner membrane using POPE/POPG (7/3) by SPR assay
Cell membrane [13] = test: Induction of cell membrane fluidity changes in Escherichia coli ATCC 25922 by Laurdan-dye based fluorescence assay; type: subcellular
Escherichia coli [14] = test: Antimicrobial activity against Escherichia coli ATCC 25922 assessed as reduction in cell viability at 10 to 10000 uM by propidium iodide staining based assay; type: functional, organism-based; conditions: dose microM 10-10000
Cell membrane [15] = test: Induction of membrane permeability in Escherichia coli assessed as increase in fine surface roughness at 25 uM by atomic force microscopy; type: subcellular

Molecule	Activity (Cell membrane [1])	Activity (Cell membrane [2])	Activity (Cell membrane [4])	Activity (Cell membrane [5])	Activity (Cell membrane [6])	MIC (Staphylococcus aureus) [µM]	HC10 (Erythrocyte) [µM]	MIC (Escherichia coli [7]) [µM]	other results
CC[C@H](C)[C@H](NC(=O)CN)C(=O)NCC(=O)N[C@@H](C)C(=O)N[C@H](C(=O)N[C@@H](CC(C)C)C(=O)N[C@@H](CCCCN)C(=O)N[C@H](C(=O)N[C@@H](CC(C)C)C(=O)N[C@H](C(=O)N[C@H](C(=O)NCC(=O)N[C@@H](CC(C)C)C(=O)N1CCC[C@H]1C(=O)N[C@@H](C)C(=O)N[C@@H](CC(C)C)C(=O)N[C@H](C(=O)N[C@@H](CO)C(=O)N[C@@H](Cc1c[nH]c2ccccc12)C(=O)N[C@H](C(=O)N[C@@H](CCCCN)C(=O)N[C@@H](CCCNC(=N)N)C(=O)N[C@@H](CCCCN)C(=O)N[C@@H](CCCNC(=N)N)C(=O)N[C@@H](CCC(N)=O)C(=O)N[C@@H](CCC(N)=O)C(N)=O)[C@@H](C)CC)[C@@H](C)CC)[C@@H](C)O)[C@@H](C)O)C(C)C)C(C)C [MELITTIN]	inactive	inactive	inactive	Active	inactive				Time (Escherichia coli [3]): 4 h
Ac-KLLKLLKKLLKLLK-NH2						10	0.625	20	
Ac-KLLKLLKKLLKLPK-NH2						10	40	10	
Ac-KLLKLLKKLLKPLK-NH2						10	40	20	
Ac-KLLKLLKKLPKLLK-NH2						40	80	40	
Ac-KLLKLLKPLLKLLK-NH2						2.5	2.5	10	
Ac-KLLKLLPKLLKLLK-NH2						5	5	10	
Ac-KLLKLPKKLLKLLK-NH2	inactive	inactive	inactive	Active	inactive	> 80	640	≥ 80	
Ac-KLLKPLKKLLKLLK-NH2						20	80	20	
Ac-KLPKLLKKLLKLLK-NH2						10	10	10	
Ac-KPLKLLKKLLKLLK-NH2						5	5	5	
Ac-LKKLLKLLKKLLKL-NH2						10	5	10	
Ac-LKKLLKLLKKLPKL-NH2	inactive	inactive	inactive	Active	inactive	10	40	5	Activity (Escherichia coli [8]): inactive; Activity (Escherichia coli [9]): Active; Activity (Escherichia coli [10]): inactive; Activity [11]: inactive; Activity (Escherichia coli [12]): Active
Ac-LKKLLKLLKPLLKL-NH2						2.5	5	5	
Ac-LKKLLKLLPKLLKL-NH2	inactive	inactive	inactive	Active	inactive	2.5	5	5	Activity (Escherichia coli [9]): Active; Activity [11]: inactive
Ac-LKKLLKLPKKLLKL-NH2	inactive	inactive	inactive	Active	inactive	> 80	640	40	
Ac-LKKLLKPLKKLLKL-NH2						20	160	20	
Ac-LKKLLPLLKKLLKL-NH2						2.5	1.25	10	
Ac-LKKLPKLSKKLLKL-NH2						10	80	2.5	
Ac-LKKPLKLGKKLLKL-NH2						40	160	5	
COLISTIN	inactive	inactive	inactive	Active	inactive				Activity (Cell membrane [13]): Active; Activity (Escherichia coli [14]): Active
H-KLAKLAKKPLKLAK-OH	inactive	inactive	inactive	Active	inactive				Activity (Cell membrane [15]): inactive
H-LKKLLKLLKKPLKL-NH2	inactive	inactive	inactive	Active	inactive	40	320	20	
